Measured values as given in ChEMBL document CHEMBL5150049, “The discovery of (1R, 3R)-1-(3-chloro-5-fluorophenyl)-3-(hydroxymethyl)-1,2,3,4-tetrahydroisoquinoline-6-carbonitrile, a potent and selective agonist of human transient receptor potential cation channel subfamily m member 5 (TRPM5) and evaluation of as a potential gastrointestinal prokinetic agent” (Bioorg Med Chem, 2022).
≈ marks a conversion by molar mass, not a printed value.

Experiments:
[1] = Half-life in C57BL/6 mouse at 100 mg/kg, po; format: ADME, organism-based; conditions: in vivo
[2] = Metabolic stability in human liver microsomes assessed as half life; format: ADME, Microsome
[3] = molecular target: T1, Transient receptor potential cation channel subfamily M member 5 (Homo sapiens, UniProt Q9NZQ8); test: Agonist activity at human TRPM5 expressed in CHO-K1 cells assessed as increase in relative fluorescence unit measured for 2 mins by FLIPR based membrane potential assay; format: cell-based
T1 sequence (Q9NZQ8 whole entry): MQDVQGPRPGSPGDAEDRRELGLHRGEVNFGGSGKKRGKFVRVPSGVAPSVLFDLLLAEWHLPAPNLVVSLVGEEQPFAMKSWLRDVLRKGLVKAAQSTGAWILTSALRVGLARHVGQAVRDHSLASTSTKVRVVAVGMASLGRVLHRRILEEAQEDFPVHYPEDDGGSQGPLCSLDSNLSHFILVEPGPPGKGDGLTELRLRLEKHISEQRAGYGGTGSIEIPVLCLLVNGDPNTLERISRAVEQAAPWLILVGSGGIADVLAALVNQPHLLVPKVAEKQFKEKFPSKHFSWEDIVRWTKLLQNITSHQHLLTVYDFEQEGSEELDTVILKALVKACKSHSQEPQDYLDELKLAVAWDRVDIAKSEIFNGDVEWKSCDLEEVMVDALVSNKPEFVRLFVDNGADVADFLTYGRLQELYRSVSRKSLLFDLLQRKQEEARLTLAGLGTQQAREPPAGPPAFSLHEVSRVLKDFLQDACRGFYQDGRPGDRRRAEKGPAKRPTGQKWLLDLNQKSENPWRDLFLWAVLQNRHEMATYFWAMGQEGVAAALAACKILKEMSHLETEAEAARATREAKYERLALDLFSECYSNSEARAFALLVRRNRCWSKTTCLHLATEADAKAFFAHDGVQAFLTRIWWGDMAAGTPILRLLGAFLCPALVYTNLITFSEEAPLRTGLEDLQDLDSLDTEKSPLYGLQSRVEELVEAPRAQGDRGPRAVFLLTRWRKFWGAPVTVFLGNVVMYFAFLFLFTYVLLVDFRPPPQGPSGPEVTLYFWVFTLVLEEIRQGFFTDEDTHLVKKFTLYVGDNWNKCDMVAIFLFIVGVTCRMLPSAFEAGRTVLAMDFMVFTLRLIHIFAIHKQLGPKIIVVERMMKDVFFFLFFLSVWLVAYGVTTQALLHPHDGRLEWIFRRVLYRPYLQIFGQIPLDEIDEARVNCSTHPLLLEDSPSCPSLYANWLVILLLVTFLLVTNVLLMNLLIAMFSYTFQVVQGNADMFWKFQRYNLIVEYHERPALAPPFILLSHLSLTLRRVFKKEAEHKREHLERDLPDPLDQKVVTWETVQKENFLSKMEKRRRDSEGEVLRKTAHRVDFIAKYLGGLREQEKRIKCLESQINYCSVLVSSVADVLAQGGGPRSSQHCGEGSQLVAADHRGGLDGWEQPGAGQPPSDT

[4] = molecular target: Transient receptor potential cation channel subfamily M member 4 (Homo sapiens, UniProt Q8TD43); test: Agonist activity at human TRPM4 expressed in CHO-K1 cells assessed as increase in relative fluorescence unit by measuring membrane potential by FLIPR assay; format: cell-based
Chain of Transient receptor potential cation channel subfamily M member 4 (Q8TD43 whole entry): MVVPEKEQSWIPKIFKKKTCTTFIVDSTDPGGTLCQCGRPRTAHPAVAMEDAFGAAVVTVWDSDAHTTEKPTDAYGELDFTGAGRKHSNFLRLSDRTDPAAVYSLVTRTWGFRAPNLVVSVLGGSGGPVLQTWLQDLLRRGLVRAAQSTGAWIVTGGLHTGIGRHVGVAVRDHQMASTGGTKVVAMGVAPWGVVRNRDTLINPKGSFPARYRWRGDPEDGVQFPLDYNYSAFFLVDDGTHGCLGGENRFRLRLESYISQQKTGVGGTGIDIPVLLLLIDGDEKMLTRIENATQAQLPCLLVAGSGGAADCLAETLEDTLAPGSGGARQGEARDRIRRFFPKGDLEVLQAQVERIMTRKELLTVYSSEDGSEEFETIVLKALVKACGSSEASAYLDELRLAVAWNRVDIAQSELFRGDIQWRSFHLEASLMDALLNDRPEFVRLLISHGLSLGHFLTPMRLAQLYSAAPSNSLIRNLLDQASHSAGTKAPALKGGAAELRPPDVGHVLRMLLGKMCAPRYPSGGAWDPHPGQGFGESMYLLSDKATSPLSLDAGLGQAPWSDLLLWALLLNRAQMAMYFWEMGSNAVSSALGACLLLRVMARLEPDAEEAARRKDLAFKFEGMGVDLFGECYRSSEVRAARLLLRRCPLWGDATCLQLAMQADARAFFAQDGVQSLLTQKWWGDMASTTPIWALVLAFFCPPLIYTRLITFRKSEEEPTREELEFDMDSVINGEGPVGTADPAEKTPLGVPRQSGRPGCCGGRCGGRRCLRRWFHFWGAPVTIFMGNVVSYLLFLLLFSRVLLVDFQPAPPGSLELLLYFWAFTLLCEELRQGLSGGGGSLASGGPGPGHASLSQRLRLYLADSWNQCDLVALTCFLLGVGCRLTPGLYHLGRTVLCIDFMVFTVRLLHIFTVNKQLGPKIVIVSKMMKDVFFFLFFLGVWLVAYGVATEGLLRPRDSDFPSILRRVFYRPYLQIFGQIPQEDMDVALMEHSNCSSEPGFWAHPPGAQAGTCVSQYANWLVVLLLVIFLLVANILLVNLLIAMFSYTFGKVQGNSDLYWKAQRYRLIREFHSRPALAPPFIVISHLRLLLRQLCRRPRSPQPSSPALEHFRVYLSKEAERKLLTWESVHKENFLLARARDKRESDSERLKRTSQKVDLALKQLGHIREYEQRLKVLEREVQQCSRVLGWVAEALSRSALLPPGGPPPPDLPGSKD

[5] = Volume of distribution at steady state in C57BL/6 mouse at 1 mg/kg, iv; format: ADME, organism-based; conditions: in vivo
[6] = Half-life in C57BL/6 mouse at 1 mg/kg, iv; format: ADME, organism-based; conditions: in vivo
[7] = Half-life in C57BL/6 mouse at 10 mg/kg, po; format: ADME, organism-based; conditions: in vivo
[8] = Half-life in C57BL/6 mouse at 30 mg/kg, po; format: ADME, organism-based; conditions: in vivo
[9] = Cmax in C57BL/6 mouse at 10 mg/kg, po; format: ADME, organism-based; parameters: dose 10 mg/kg, route po; conditions: in vivo
[10] = Cmax in C57BL/6 mouse at 30 mg/kg, po; format: ADME, organism-based; parameters: dose 30 mg/kg, route po; conditions: in vivo
[11] = AUC (0 to infinity) in C57BL/6 mouse at 10 mg/kg, po; format: ADME, organism-based; parameters: time infinity, dose 10 mg/kg, route po; conditions: in vivo
[12] = Cmax in C57BL/6 mouse at 100 mg/kg, po; format: ADME, organism-based; parameters: dose 100 mg/kg, route po; conditions: in vivo
[13] = AUC (0 to infinity) in C57BL/6 mouse at 1 mg/kg, iv; format: ADME, organism-based; parameters: time infinity, dose 1 mg/kg, route iv; conditions: in vivo
[14] = AUC (0 to infinity) in C57BL/6 mouse at 30 mg/kg, po; format: ADME, organism-based; parameters: time infinity, dose 30 mg/kg, route po; conditions: in vivo
[15] = AUC (0 to infinity) in C57BL/6 mouse at 100 mg/kg, po; format: ADME, organism-based; parameters: time infinity, dose 100 mg/kg, route po; conditions: in vivo
[16] = Oral bioavailability in C57BL/6 mouse at 10 mg/kg; format: ADME, organism-based; conditions: in vivo
[17] = Oral bioavailability in C57BL/6 mouse at 30 mg/kg; format: ADME, organism-based; conditions: in vivo
[18] = Oral bioavailability in C57BL/6 mouse at 100 mg/kg; format: ADME, organism-based; conditions: in vivo
[19] = molecular target: T2, Transient receptor potential cation channel subfamily M member 5 (Mus musculus, UniProt Q9JJH7); test: Agonist activity at mouse TRPM5 expressed in CHO-K1 cells; format: cell-based
T2 sequence (Q9JJH7 whole entry): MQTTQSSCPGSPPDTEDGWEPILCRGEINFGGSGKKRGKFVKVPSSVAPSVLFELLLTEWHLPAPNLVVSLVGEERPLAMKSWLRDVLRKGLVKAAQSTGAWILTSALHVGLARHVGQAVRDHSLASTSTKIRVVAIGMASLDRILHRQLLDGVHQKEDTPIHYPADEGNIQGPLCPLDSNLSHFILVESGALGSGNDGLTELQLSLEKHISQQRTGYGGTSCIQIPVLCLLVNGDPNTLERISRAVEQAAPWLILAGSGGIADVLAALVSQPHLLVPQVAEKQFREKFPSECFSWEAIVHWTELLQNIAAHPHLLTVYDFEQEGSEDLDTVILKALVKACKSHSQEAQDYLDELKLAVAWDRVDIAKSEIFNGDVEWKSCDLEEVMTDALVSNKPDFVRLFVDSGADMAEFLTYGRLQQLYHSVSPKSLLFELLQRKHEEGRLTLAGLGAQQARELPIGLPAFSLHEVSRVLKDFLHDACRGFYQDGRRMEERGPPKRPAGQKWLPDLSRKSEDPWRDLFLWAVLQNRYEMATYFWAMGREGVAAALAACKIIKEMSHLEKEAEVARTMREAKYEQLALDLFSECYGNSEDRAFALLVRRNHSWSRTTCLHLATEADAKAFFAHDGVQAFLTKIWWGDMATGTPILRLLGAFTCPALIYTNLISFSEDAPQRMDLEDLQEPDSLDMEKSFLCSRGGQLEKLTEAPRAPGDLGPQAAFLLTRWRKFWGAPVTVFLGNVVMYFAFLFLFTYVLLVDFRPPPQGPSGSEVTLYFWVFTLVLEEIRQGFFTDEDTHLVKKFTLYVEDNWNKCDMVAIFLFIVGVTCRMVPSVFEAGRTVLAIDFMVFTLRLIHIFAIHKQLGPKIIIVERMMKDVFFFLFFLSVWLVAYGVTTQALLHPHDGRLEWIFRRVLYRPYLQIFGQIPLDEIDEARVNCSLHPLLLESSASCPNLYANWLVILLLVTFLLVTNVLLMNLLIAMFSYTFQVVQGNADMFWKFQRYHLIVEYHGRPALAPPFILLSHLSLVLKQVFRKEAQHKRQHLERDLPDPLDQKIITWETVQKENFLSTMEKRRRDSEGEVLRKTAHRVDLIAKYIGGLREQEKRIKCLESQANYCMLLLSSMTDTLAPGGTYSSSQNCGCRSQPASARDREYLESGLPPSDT

[20] = molecular target: Transient receptor potential cation channel subfamily V member 1 (Homo sapiens, UniProt Q8NER1); test: Agonist activity at human TRPV1
[21] = molecular target: Transient receptor potential cation channel subfamily M member 8 (Homo sapiens, UniProt Q7Z2W7); test: Agonist activity at human TRPM8 expressed in HEK cells assessed as increase in intracellular calcium level measured for 5 mins by FLIPR assay; format: cell-based
Chain of Transient receptor potential cation channel subfamily M member 8 (Q7Z2W7 whole entry): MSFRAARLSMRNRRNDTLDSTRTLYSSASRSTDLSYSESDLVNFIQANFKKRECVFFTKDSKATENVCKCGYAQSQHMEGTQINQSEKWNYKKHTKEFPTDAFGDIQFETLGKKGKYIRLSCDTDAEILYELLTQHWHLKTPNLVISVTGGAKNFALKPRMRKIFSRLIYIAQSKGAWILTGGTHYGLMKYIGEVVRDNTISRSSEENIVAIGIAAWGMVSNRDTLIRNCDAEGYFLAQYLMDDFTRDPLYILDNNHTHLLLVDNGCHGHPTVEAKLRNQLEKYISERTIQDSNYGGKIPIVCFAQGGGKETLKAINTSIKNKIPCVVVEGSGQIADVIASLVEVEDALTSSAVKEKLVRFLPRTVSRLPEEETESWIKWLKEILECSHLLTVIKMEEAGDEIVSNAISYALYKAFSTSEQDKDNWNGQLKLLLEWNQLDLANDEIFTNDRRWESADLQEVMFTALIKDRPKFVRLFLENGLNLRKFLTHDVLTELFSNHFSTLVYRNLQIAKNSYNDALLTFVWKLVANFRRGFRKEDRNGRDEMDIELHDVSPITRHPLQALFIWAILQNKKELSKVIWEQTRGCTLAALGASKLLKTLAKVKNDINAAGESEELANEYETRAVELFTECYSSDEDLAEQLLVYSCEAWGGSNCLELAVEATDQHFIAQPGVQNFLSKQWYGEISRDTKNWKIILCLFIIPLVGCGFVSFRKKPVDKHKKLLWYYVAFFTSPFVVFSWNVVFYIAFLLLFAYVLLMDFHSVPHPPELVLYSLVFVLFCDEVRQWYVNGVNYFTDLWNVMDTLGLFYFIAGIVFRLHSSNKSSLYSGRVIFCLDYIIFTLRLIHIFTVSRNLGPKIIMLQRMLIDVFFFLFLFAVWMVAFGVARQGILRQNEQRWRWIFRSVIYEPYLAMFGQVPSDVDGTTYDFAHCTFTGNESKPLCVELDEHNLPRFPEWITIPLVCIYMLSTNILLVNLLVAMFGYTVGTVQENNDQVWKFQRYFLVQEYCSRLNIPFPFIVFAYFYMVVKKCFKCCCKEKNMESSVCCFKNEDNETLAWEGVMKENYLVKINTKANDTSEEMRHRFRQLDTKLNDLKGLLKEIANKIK

[22] = molecular target: Transient receptor potential cation channel subfamily A member 1 (Homo sapiens, UniProt O75762); test: Agonist activity at human TRPA1 expressed in HEK cells assessed as increase in intracellular calcium level measured for 5 mins by FLIPR assay; format: cell-based
Chain of Transient receptor potential cation channel subfamily A member 1 (O75762 whole entry): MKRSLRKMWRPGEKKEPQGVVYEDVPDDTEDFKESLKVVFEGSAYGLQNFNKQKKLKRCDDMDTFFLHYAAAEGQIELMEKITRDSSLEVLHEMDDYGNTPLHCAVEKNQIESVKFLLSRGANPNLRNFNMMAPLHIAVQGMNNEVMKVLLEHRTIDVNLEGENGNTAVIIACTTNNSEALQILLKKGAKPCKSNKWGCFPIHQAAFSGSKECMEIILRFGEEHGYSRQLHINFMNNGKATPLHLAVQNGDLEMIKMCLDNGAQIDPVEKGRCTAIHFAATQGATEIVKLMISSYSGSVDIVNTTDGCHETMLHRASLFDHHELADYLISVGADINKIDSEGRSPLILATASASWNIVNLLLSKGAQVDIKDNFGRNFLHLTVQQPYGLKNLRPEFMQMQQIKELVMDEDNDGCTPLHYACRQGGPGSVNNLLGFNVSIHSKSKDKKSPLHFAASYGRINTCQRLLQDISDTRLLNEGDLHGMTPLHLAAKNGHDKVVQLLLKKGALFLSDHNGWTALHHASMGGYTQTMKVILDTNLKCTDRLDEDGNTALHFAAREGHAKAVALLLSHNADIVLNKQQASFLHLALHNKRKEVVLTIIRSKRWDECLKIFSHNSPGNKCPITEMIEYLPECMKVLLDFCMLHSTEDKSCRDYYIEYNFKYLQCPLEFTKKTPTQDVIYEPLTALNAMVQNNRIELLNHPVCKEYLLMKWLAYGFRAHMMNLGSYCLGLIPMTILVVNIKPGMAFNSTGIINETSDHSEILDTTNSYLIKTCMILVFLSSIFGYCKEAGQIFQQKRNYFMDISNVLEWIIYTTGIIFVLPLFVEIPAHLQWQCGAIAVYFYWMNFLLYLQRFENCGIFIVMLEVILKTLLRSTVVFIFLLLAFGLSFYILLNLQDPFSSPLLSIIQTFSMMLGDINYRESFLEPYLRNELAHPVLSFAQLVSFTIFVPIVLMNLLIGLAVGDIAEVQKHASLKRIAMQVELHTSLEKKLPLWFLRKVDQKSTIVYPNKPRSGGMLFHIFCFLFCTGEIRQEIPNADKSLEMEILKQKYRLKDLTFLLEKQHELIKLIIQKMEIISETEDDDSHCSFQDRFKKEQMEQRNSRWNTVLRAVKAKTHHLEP

[23] = molecular target: Transient receptor potential cation channel subfamily V member 4 (Homo sapiens, UniProt Q9HBA0); test: Agonist activity at human TRPV4
Chain of Transient receptor potential cation channel subfamily V member 4 (Q9HBA0 whole entry): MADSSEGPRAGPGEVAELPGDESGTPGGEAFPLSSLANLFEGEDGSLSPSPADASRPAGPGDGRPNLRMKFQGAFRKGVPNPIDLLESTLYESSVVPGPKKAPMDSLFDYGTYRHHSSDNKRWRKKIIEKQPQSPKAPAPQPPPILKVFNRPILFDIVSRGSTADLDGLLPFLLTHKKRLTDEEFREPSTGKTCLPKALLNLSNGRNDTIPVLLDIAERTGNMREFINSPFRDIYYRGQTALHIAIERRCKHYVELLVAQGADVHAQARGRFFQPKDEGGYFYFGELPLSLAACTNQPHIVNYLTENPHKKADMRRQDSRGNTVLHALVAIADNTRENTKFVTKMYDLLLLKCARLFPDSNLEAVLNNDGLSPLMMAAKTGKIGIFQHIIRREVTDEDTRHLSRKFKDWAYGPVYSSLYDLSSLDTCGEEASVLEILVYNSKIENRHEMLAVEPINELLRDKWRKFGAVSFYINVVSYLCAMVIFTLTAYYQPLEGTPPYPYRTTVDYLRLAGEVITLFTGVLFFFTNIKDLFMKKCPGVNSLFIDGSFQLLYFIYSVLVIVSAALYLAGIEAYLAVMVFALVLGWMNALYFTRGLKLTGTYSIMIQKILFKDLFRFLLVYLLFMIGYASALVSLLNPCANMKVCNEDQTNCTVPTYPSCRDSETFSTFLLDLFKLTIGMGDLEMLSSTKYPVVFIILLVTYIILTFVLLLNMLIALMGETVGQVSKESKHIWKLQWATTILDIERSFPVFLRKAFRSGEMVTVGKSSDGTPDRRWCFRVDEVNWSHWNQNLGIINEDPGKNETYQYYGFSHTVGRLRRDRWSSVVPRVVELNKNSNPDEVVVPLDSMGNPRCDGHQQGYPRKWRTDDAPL

[24] = Solubility of the compound in JP1 solution at pH 1.2 measured after 3 hrs by UHPLC analysis; format: physicochemical
[25] = Solubility of the compound in JP2 solution at pH 6.8 measured after 3 hrs by UHPLC analysis; format: physicochemical
[26] = system: MDR1 (multidrug resistance mutation-1 as written); test: Apparent permeability across apical to basolateral side in LLC-PK1 cells overexpressing multidrug resistance mutation-1; format: ADME, cell-based, Sus scrofa; conditions: pig
[27] = system: MDR1 (multidrug resistance mutation-1 as written); test: Apparent permeability across basolateral to apical side in LLC-PK1 cells overexpressing multidrug resistance mutation-1; format: ADME, cell-based, Sus scrofa; conditions: pig
[28] = Clearance in C57BL/6 mouse at 1 mg/kg, iv; format: ADME, organism-based; conditions: in vivo
[29] = Half-life in C57BL/6 mouse at 300 mg/kg, po; format: ADME, organism-based; conditions: in vivo
[30] = Cmax in C57BL/6 mouse at 300 mg/kg, po; format: ADME, organism-based; parameters: dose 300 mg/kg, route po; conditions: in vivo
[31] = AUC (0 to infinity) in C57BL/6 mouse at 300 mg/kg, po; format: ADME, organism-based; parameters: time infinity, dose 300 mg/kg, route po; conditions: in vivo
[32] = Oral bioavailability in C57BL/6 mouse at 300 mg/kg; format: ADME, organism-based; conditions: in vivo
[33] = Solubility of the compound in JP1 solution at pH 1.2; format: physicochemical
[34] = Solubility of the compound in JP2 solution at pH 6.8; format: physicochemical
[35] = Apparent permeability across apical to basolateral side in human Caco-2 cells; format: ADME, cell-based
[36] = Apparent permeability across basolateral to apical side in human Caco-2 cells; format: ADME, cell-based
[37] = Unbound fraction in human plasma; format: ADME, cell-free
[38] = Unbound fraction in mouse plasma; format: ADME, cell-free
[39] = Area under […] in C57BL/6 mouse at 30 mg/kg administered twice a day; format: ADME, organism-based; conditions: in vivo
[40] = Area under […] in C57BL/6 mouse at 100 mg/kg administered twice a day; format: ADME, organism-based; conditions: in vivo
[41] = Area under […] in C57BL/6 mouse at 300 mg/kg administered twice a day; format: ADME, organism-based; conditions: in vivo

N#Cc1ccc2c(c1)C[C@H](CO)N[C@@H]2c1cc(F)cc(Cl)c1
t1/2 ([1]; mouse, po, 100 mg/kg): 6.3 h | t1/2 ([2]; microsomes): 1.48 h | EC50 [3]: 0.0794 µM | EC50 [4]: 52.5 µM | Vdss ([5]; mouse, iv, 1 mg/kg): 3.507 L/kg | t1/2 ([6]; mouse, iv, 1 mg/kg): 0.8 h | t1/2 ([7]; mouse, po, 10 mg/kg): 4.3 h | half-life ([8]; C57BL/6, mouse): 5.4 h | Cmax [9]: 101 ng/mL | Cmax [10]: 301 ng/mL | AUC [11]: 395 ng·h/mL | Cmax [12]: 1396 ng/mL | AUC ([13]; mouse): 177.1 ng·h/mL | AUC [14]: 1716 ng·h/mL | AUC [15]: 8591 ng·h/mL | F [16]: 16.6% | F [17]: 20.3% | F [18]: 49% | EC50 [19]: 0.251 µM | EC50 [20]: > 15.8 µM | EC50 [21]: > 15.8 µM | EC50 [22]: > 15.8 µM | EC50 [23]: > 15.8 µM | solubility at 3 h [24]: 3500 µg/mL (≈ 11 mM) | solubility at 3 h [25]: 43 µg/mL (≈ 0.136 mM) | Papp A→B [26]: 26.6 ×10⁻⁶ cm/s | Papp B→A [27]: 13.7 ×10⁻⁶ cm/s

N#Cc1ccc2c(c1)C[C@H](CO)N[C@@H]2c1cc(F)cc(Cl)c1 (racemic)
half-life ([1]; C57BL/6, mouse): 5.1 h | half-life ([2]; liver microsomes): 1.53 h | EC50 [3]: 0.126 µM | EC50 [4]: 11.5 µM | clearance [28]: 92.3 mL/min/kg | Vd ([5]; C57BL/6, mouse, read-out: Vdss): 4.41 L/kg | half-life ([6]; C57BL/6, mouse): 1.1 h | half-life ([7]; C57BL/6, mouse): 2.9 h | t1/2 ([8]; mouse, po, 30 mg/kg): 4.4 h | half-life [29]: 5.5 h | Cmax [9]: 290 ng/mL | Cmax [10]: 700 ng/mL | AUC [11]: 848 ng·h/mL | Cmax [12]: 3667 ng/mL | Cmax [30]: 6020 ng/mL | AUC(0-inf) ([13]; C57BL/6, mouse): 181 ng·h/mL | AUC [14]: 3676 ng·h/mL | AUC [15]: 28050 ng·h/mL | AUC(0-inf) [31]: 49400 ng·h/mL | F [16]: 44% | F [17]: 74% | F [18]: 100% | bioavailability [32]: 100% | solubility [33]: 25300 µg/mL (≈ 79.7 mM) | solubility [34]: 201 µg/mL (≈ 0.635 mM) | Papp A→B [35]: 10.3 ×10⁻⁶ cm/s | Papp B→A [36]: 15.4 ×10⁻⁶ cm/s | fraction unbound [37]: 0.121 | fraction unbound [38]: 0.115 | AURC [39]: 6.7 h | AURC [40]: 12.3 h | AURC [41]: 17.3 h
